Read-outs that look alike come from different tables or passages of the source.
Key:
[1] = biological target: T1, AEA-DA lipid probe targets in Neuro2a cells (Mus musculus, UniProt Q9WTQ8)
T1 sequence (Q9WTQ8 1-209): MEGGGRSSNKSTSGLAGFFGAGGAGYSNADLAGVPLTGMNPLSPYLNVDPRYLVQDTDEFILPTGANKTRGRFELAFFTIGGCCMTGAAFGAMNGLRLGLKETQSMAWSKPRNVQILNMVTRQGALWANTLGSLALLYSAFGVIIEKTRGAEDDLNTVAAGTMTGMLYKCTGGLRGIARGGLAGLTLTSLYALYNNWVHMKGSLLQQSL

[2] = biological target: T2, AEA-DA lipid probe targets in Neuro2a cells (Mus musculus, UniProt Q5XJY4)
T2 sequence (Q5XJY4 51-377): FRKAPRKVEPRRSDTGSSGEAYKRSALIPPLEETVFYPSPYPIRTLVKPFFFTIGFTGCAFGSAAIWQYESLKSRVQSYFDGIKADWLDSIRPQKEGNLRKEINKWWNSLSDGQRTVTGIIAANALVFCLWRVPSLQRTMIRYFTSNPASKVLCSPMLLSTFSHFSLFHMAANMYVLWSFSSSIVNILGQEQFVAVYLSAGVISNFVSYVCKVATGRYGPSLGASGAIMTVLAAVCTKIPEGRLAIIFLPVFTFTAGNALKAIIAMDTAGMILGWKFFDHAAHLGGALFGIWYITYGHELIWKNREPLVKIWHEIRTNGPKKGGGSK

[3] = biological target: T3, AEA-DA lipid probe targets in Neuro2a cells (Mus musculus, UniProt Q924D0); conditions: protein Rtn4ip1, Neuro2a cells
T3 sequence (Q924D0 41-396): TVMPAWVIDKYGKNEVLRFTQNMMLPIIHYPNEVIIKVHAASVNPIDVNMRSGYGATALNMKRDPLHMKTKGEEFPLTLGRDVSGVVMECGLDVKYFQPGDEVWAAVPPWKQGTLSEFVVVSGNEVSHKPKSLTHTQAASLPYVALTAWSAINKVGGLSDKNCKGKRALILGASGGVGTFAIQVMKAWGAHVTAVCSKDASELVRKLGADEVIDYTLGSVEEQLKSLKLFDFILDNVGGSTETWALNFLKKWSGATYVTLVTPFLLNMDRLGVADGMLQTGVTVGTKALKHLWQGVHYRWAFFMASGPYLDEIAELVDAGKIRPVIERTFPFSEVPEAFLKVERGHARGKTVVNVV

[4] = biological target: T4, AEA-DA lipid probe targets in Neuro2a cells (Mus musculus, UniProt Q8K0C4)
T4 sequence (Q8K0C4 1-503): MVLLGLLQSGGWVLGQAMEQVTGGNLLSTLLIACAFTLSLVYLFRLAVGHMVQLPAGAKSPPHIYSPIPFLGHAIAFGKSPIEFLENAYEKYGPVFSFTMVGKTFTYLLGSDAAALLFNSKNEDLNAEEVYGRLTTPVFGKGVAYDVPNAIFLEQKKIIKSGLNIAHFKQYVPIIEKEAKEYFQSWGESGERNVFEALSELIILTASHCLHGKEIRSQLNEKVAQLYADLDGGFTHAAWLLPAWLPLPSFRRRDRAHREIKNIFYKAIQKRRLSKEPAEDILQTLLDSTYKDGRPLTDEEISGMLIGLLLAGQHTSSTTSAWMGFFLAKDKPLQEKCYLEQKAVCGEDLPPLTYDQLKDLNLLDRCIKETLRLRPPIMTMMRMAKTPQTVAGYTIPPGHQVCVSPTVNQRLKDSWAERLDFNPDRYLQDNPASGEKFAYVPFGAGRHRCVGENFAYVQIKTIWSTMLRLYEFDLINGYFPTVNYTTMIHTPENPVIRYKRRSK

[5] = biological target: T5, AEA-DA lipid probe targets in Neuro2a cells (Mus musculus, UniProt Q920A5)
T5 sequence (Q920A5 29-452): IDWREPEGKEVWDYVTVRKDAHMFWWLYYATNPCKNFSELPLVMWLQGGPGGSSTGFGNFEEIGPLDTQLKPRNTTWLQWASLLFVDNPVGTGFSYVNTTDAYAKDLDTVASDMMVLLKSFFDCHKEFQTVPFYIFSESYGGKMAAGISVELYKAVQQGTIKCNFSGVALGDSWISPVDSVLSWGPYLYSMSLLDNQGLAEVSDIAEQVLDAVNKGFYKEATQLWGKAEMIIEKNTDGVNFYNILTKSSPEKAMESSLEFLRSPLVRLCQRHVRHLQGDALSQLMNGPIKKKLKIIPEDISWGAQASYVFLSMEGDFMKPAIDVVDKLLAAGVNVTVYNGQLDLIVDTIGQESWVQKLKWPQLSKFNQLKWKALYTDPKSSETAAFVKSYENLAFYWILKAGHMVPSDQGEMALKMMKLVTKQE

[6] = biological target: T6, AEA-DA lipid probe targets in Neuro2a cells (Mus musculus, UniProt Q61263)
T6 sequence (Q61263 1-540): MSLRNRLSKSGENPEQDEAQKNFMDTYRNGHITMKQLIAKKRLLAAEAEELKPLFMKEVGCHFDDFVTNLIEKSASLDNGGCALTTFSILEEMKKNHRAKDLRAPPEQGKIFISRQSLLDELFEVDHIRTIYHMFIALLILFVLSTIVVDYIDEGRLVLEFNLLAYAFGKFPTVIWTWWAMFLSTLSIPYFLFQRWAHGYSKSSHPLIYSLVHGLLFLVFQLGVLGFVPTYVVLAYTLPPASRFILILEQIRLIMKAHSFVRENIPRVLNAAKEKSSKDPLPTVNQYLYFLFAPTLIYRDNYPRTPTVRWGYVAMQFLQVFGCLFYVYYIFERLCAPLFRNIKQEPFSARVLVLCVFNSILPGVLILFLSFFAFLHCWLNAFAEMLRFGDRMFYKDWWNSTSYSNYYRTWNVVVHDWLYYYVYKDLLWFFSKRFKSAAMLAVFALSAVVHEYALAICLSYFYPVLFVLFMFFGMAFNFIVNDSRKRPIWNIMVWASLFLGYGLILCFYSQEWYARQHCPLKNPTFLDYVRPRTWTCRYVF

SMILES	SILAC ratio, Timm23 ([1]; competitor 25 μM)	SILAC ratio Parl ([2]; competitor 25 μM)	SILAC ratio, Soat1 ([6]; competitor 25 μM)	SILAC ratio Cyp51a1 ([4]; competitor 25 μM)	SILAC ratio Scpep1 ([5]; competitor 25 μM)	SILAC ratio (AEA-DA competition) ([3]; competitor 25 μM)	further results
CCCCC/C=C\C/C=C\C/C=C\C/C=C\CCCC(=O)NCCO [AEA, anandamide, reference compound]	–	–	–	–	–	–	SILAC ratio, Timm23 ([1]; competitor 200 μM): 1.8; SILAC ratio Parl ([2]; competitor 200 μM): 1.3; SILAC ratio (AEA-DA competition) ([3]; competitor 200 μM): 1.0; SILAC ratio Cyp51a1 ([4]; competitor 200 μM): 1.8; SILAC ratio Scpep1 ([5]; competitor 200 μM): 1.0
O=C(/C=C/c1cccnc1)NCCCCC1CCN(C(=O)c2ccccc2)CC1 [FK-866, reference compound]	1.1	1.3	2.3	1.5	1.2	–	–
CN1CCN(C(=O)c2c(-c3ccccc3)c3cc([N+](=O)[O-])ccc3n2C)CC1 [KML110, (1-Methyl-5-nitro-3-phenyl-1H-indol-2-yl)(4-methylpiperazin-1-yl)methanone]	1.3	1.3	–	1.2	1.6	–	–
CN1CCN(C(=O)c2[nH]c3ccc([N+](=O)[O-])cc3c2-c2ccccc2)CC1 [MJN228, (4-Methylpiperazin-1-yl)(5-nitro-3-phenyl-1H-indol-2-yl)methanone]	1.2	1.4	2.6	2.2	1.4	1.4	SILAC ratio, Timm23 ([1]; competitor 10 μM): 1.0; SILAC ratio, Timm23 ([1]; competitor 50 μM): 1.3; SILAC ratio, Timm23 ([1]; competitor 100 μM): 1.5; SILAC ratio Parl ([2]; competitor 10 μM): 1.3; SILAC ratio Parl ([2]; competitor 50 μM): 1.1; SILAC ratio Parl ([2]; competitor 100 μM): 1.9; SILAC ratio, Soat1 ([6]; competitor 10 μM): 1.2; SILAC ratio (AEA-DA competition) ([3]; competitor 10 μM): 1.0; SILAC ratio Cyp51a1 ([4]; competitor 10 μM): 1.5; SILAC ratio Cyp51a1 ([4]; competitor 50 μM): 2.3; SILAC ratio Cyp51a1 ([4]; competitor 100 μM): 3.1; SILAC ratio Scpep1 ([5]; competitor 10 μM): 1.2; SILAC ratio Scpep1 ([5]; competitor 50 μM): 1.5; SILAC ratio Scpep1 ([5]; competitor 100 μM): 1.9
C=CCN(C)CCCCCCOc1ccc(C(=O)c2ccc(Br)cc2)c(F)c1 [Ro 48-8071, reference compound]	1.0	1.1	1.8	1.3	0.4	0.7	–
